# From patent publication US12642801B2, “Pharmaceutical composition for preventing or treating rheumatoid arthritis and health functional food” (SEOUL NATIONAL UNIVERSITY R&DB FOUNDATION, priority 2021, dated 2026)
# How the values were obtained:
# [1] = system: CIA mice; experiment: Edema of paws and joints / paw thickness in CIA mice; type: in vivo
# Method: In the present invention, “CIA” is used for an animal model suffering from rheumatoid arthritis and means “collagen-induced arthritis.”
# (§1) In the examples of the present invention, efficacies of the composition of the present invention were investigated by establishing animal models CIA or SIA with animal diseases similar to rheumatoid arthritis of the human body. Specifically, 100 μl of 250 μg or 500 μg of the compound YKL-05-099 (CAS No.: 1936529-65-5) shown in FIG. 1 was intraperitoneally (i.p.) administered to a mouse weighed 25 g (that is, 10 mg or 20 mg per 1 kg) once a day.
# (§2) After i.p. administration of YKL-05-099 in an amount of 10 mg/kg or 20 mg/kg to mice having rheumatoid arthritis once a day, improvement of edema in the paws was investigated. For definite measurement and comparison, the most swollen portion of the paw was measured in multiple times, and collected numerical values of paw thickness were recorded and compared. Disease-free mice without administration of antigens were used as a negative control.
# (§3) FIG. 4 illustrates measured results of the paw thickness of CIA mice while FIG. 5 illustrates measured results of the paw thickness of SIA mice, respectively.
# [2] = system: SIA mice; experiment: Edema of paws and joints / paw thickness in SIA mice; type: in vivo
# Method: In the present invention, “SIA” is used for an animal model suffering from rheumatoid arthritis and means “serum transfer arthritis.”
# as §1, §2, §3
# [3] = system: CIA mice; experiment: Rheumatoid arthritis clinical score in CIA mice; type: in vivo; conditions: 10 mg/kg or 20 mg/kg, score 0-4 per paw, four paws combined, FIG. 6
# Method: as §1
# (§4) With regard to rheumatoid arthritis animal models CIA and SIA, respectively, rheumatoid arthritis clinical score was investigated. Disease-free mice without administration of antigen were used as a negative control. The clinical scores were determined depending on significance as follows: 0 (no symptom); 1 (slight edema on the soles or toes); 2 (significant edema throughout the soles and toes); 3 (significant to serious edema throughout the paw); 4 (serious edema and distortion throughout the paw), and then, the results for four paws were combined. FIG. 6 illustrates the results for CIA mice, and FIG. 7 illustrates the results for SIA mice, respectively.
# [4] = system: SIA mice; experiment: Rheumatoid arthritis clinical score in SIA mice; type: in vivo; conditions: 10 mg/kg or 20 mg/kg, score 0-4 per paw, four paws combined, FIG. 7
# Method: as §1, §4
# [5] = system: spleen and the lymph nodes; experiment: Expansion of spleen and lymph tissues (inguinal and mesenteric lymph nodes); type: in vivo, mice; conditions: compared to the control, FIG. 8
# Method: as §1, with “day. […] Disease-free mice without administration of antigens were used as a negative control, and the compared results are shown in FIG. 8.” for “day.”
# [6] = system: CIA mice; experiment: Bone loss around paw joint (micro CT) in CIA mice; type: in vivo; conditions: bone amount in the paw joint, FIG. 9
# Method: FIG. 9 is photographs taken through micro CT and graphs showing effects of inhibiting reduction of bone loss around the joints in the embodiments of the present invention.
# as §1
# [7] = system: TNF-α, IL-6, IFN-γ, IL-17a; experiment: Inflammatory cytokines in peripheral blood by ELISA, CIA mice; type: in vivo; conditions: ELISA at time of sacrifice, FIG. 10
# Method: as §1
# (§5) After administering YKL-05-099 to the rheumatoid arthritis animal model, essential inflammatory cytokines to induce rheumatoid arthritis such as TNF-α and IL-6, the representative immunoreactive cytokine of TH1 such as IFN-γ, and the representative immunoreactive cytokine of TH17 such as 1L-17a within peripheral blood at a time of sacrificing the mouse were subjected to analysis through enzyme linked immunosorbent assay (ELISA). Specifically, cytokine analysis was implemented using ELISA kit products according to instructions of Invitrogen Co., wherein the used product serial numbers are anti-IFN-γ (88-7314), anti-TNF-α (88-7324), anti-IL-17a (88-7371) and anti-IL-6 (88-7064). Disease-free mice without administration of antigens were used as a negative control. […] FIG. 10 illustrates measured results of cytokines in CIA mice while FIG. 11 illustrates measured results of cytokines in SIA mice, respectively.
# [8] = system: TNF-α, IL-6, IFN-γ, IL-17a; experiment: Inflammatory cytokines in peripheral blood by ELISA, SIA mice; type: in vivo; conditions: ELISA at time of sacrifice, FIG. 11
# Method: as §1, §5
# [9] = system: CD4+ Foxp3+ cells (Treg); experiment: Treg cell level in spleen cells of CIA mice by flow cytometry; type: in vivo; conditions: for ratio of CD4+ Foxp3+ cells as a marker for Treg: spleen live cells, CIA+Veh 12.24±0.34%, sham 10.725±0.53%
# Method: After i.p. administration of YKL-05-099 in an amount of 10 mg/kg or 20 mg/kg to the rheumatoid arthritis model CIA mice once a day, spleen cells were isolated at a time of sacrificing the mice to investigate Treg cell levels. Immune cell assay was performed through flow cytometry, and the experiment was implemented according to product instructions of Invitrogen Co. Specifically, the spleen cells were isolated to prepare 1×10^6 cells/100 μl of single cells, followed by staining live/dead cells using fixable viability dye (Invitrogen, eFluor™780, 65-0865-14), and then blocking the same using anti-CD16/32 (Invitrogen, 14-0161). Following this, the above product was stained using anti-CD4 (Invitrogen, RM4-5, mice) and anti-Foxp3 (Invitrogen, FJK-16s, mice). The stained cells were subjected to measurement of a ratio of CD4^+ Foxp3^+ cells as a marker for Treg in live cells isolated through flow cytometry.
# FIGS. 12A and 12B illustrate the above measured results. From the results of measuring a ratio of CD4^+ Foxp3^+ cells as a marker for Treg, it was confirmed that sham (disease-free mice) is 10.725±0.53%, CIA+Veh is 12.24±0.34%, CIA+YKL-05-099 10 mg/kg is 14.2±1.28%, CIA+YKL-05-099 20 mg/kg is 14.98±1.16%, respectively. Using unpaid parametric Welch's corrected t-test (two-tailed), p-value was indicated. With regard to statistically significant levels, p-value is 0.05 or less, wherein significance was represented by *p<0.05, **p<0.01 and ***p<0.001. Sham vs CIA+Veh p-value is 0.0045, CIA+YKL-05-099 10 mg/kg vs CIA+Veh p-value is 0.0119, CIA+YKL-05-099 20 mg/kg vs CIA+Veh p-value is 0.0046, CIA+YKL-05-099 10 mg/kg vs sham p-value is 0.0005, and CIA_YKL-05-099 20 mg/kg vs sham p-value is 0.0004.
# [10] = system: CD11b+ F4/80+ cells (macrophage cells); experiment: Macrophage cell level in spleen cells of CIA mice by flow cytometry; type: in vivo; conditions: for ratio of CD11b+ F4/80+ cells as a marker for macrophage cells: spleen live cells, CIA+Veh 1.854±0.41%, sham 0.355±0.08%
# Method: In order to confirm mitigation effects of increase in immune active macrophage cells in the spleen, after i.p. administration of YKL-05-099 in an amount of 10 mg/kg or 20 mg/kg to the rheumatoid arthritis model CIA mice once a day, spleen cells were isolated at a time of sacrificing the mice to investigate macrophage cell levels. FIGS. 13A and 13B illustrate the above results of investigating macrophage cell levels. Immune cell assay was performed through flow cytometry, and the experiment was implemented according to product instructions of Invitrogen Co.
# Specifically, the spleen cells were isolated to prepare 1×10^6 cells/100 μl of single cells, followed by staining live/dead cells using fixable viability dye (Invitrogen, eFluor™780, 65-0865-14), and then blocking the same using anti-CD16/32 (Invitrogen, 14-0161). Following this, the above product was stained using anti-CD11b (Invitrogen, M1/70) and anti-F4/80 (Invitrogen, BM8). The stained cells were subjected to measurement of a ratio of CD11b^+ F4/80^+ cells as a marker for macrophage cells in live cells isolated through flow cytometry.
# From the result of measuring a ratio of CD11b^+ F4/80^+ cells as a marker for macrophage cells, it was confirmed that sham is 0.355±0.08%, CIA+Veh is 1.854±0.41%, CIA+YKL-05-099 10 mg/kg is 1.043±0.30%, CIA+YKL-05-099 20 mg/kg is 0.975±0.12%, respectively. Using unpaid parametric Welch's corrected t-test (two-tailed), p-value was indicated. With regard to statistically significant levels, p-value is 0.05 or less, wherein significance was represented by *p<0.05, **p<0.01 and ***p<0.001. CIA+Veh vs sham p-value is 0.0009, CIA+YKL-05-099 20 mg/kg vs CIA+Veh p-value is 0.0057, CIA+YKL-05-099 10 mg/kg vs sham p-value is 0.0019, CIA+YKL-05-099 20 mg/kg vs sham p-value is 0.0002, and CIA+YKL-05-099 10 mg/kg vs CIA+Veh p-value is 0.0076.
smiles,measurement,setting,value
COc1ccc(N2C(=O)N(c3c(C)cccc3Cl)Cc3cnc(Nc4ccc(C5CCN(C)CC5)cc4OC)nc32)nc1 [YKL-05-099],edema of the paws and around the joints (visually observed),"[1]; 10 mg/kg or 20 mg/kg i.p. once a day, compared to the control, FIG. 2",remarkably improved
same,paw thickness,"[1]; vs vehicle administered group, FIG. 4",remarkably thinner
same,edema of the paws and around the joints (visually observed),"[2]; 10 mg/kg or 20 mg/kg i.p. once a day, compared to the control, FIG. 3",remarkably improved
same,paw thickness,"[2]; vs vehicle administered group, FIG. 5",remarkably thinner
same,rheumatoid arthritis clinical scores,[3],significantly reduced
same,rheumatoid arthritis clinical scores,[4],significantly reduced
same,expansion of the spleen and the lymph nodes,[5],greatly suppressed
same,bone loss in paw joint,[6],significantly inhibited
same,"inflammatory cytokines (TNF-α, IL-6, IFN-γ, IL-17a) within peripheral blood",[7],greatly suppressed
same,"inflammatory cytokines (TNF-α, IL-6, IFN-γ, IL-17a) within peripheral blood",[8],greatly suppressed
same,ratio of Treg cells compared to CIA+Veh,[9]; 10 mg/kg and 20 mg/kg,statistically significant increase
same,ratio of CD4+ Foxp3+ cells as a marker for Treg,"[9]; 10 mg/kg i.p. once a day, p vs Veh 0.0119",14.2±1.28%
same,ratio of CD4+ Foxp3+ cells as a marker for Treg,"[9]; 20 mg/kg i.p. once a day, p vs Veh 0.0046",14.98±1.16%
same,ratio of macrophage cells compared to CIA+Veh,[10]; 10 mg/kg and 20 mg/kg,statistically significant decrease
same,ratio of CD11b+ F4/80+ cells as a marker for macrophage cells,"[10]; 10 mg/kg i.p. once a day, p vs Veh 0.0076",1.043±0.30%
same,ratio of CD11b+ F4/80+ cells as a marker for macrophage cells,"[10]; 20 mg/kg i.p. once a day, p vs Veh 0.0057",0.975±0.12%
